Experimental data: patent US20230109833A1, “METABOLICALLY STABLE N-ACYLAMINOOXADIAZOLES USEFUL AS ANTIBACTERIAL AGENTS” (MICROBIOTIX, INC., priority 2017, published 2023)

Key:
Type in all cases: binding
[1] = target: T1, Adenosine A1 (Homo sapiens, UniProt P30542); conditions: 10 μM compound, Hit Profile Panel
T1 sequence (P30542 1-326): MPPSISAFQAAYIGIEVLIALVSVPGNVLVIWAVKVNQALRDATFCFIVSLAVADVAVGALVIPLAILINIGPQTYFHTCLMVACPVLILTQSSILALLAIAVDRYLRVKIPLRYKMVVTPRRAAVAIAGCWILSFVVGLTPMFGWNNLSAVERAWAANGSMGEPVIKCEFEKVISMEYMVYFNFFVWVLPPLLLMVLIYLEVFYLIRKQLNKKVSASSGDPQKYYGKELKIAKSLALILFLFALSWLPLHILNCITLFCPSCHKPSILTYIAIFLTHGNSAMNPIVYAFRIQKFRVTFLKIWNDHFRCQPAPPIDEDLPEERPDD

[2] = target: Adenosine A2A (Homo sapiens, UniProt P29274); conditions: 10 μM compound, Hit Profile Panel
[3] = target: T2, Adrenergic α1A (Rattus norvegicus, UniProt P43140); conditions: 10 μM compound, Hit Profile Panel
T2 sequence (P43140 1-466): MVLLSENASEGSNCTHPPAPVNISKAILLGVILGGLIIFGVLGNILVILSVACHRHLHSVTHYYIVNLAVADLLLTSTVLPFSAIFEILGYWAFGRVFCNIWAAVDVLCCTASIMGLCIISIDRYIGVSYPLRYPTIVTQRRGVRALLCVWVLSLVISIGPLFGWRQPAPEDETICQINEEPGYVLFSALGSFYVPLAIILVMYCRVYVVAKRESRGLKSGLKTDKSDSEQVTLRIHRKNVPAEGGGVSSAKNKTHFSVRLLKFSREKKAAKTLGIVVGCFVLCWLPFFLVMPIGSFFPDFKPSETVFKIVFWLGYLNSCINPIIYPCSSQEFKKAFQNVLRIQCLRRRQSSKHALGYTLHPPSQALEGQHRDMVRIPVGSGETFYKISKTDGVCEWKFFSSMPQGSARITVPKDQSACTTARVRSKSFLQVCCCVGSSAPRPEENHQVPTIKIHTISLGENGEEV

[4] = target: T3, Adrenergic α2A (Homo sapiens, UniProt P08913); conditions: 10 μM compound, Hit Profile Panel
T3 sequence (P08913 1-465): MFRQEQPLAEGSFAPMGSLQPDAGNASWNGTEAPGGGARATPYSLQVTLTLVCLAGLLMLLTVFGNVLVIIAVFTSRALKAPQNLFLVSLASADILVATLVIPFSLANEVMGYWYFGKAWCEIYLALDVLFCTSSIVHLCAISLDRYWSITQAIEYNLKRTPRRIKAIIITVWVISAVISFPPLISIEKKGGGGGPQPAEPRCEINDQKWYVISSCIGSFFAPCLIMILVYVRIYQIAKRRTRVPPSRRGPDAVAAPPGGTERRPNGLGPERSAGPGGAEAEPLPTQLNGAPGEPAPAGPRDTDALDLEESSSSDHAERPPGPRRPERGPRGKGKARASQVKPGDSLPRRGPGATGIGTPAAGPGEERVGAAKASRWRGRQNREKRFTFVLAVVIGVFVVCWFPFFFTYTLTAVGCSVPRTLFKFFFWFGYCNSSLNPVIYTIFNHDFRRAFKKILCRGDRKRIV

[5] = target: Cannabinoid CB1 (Homo sapiens, UniProt P21554); conditions: 10 μM compound, Hit Profile Panel
Sequence of Cannabinoid CB1 (P21554 whole entry): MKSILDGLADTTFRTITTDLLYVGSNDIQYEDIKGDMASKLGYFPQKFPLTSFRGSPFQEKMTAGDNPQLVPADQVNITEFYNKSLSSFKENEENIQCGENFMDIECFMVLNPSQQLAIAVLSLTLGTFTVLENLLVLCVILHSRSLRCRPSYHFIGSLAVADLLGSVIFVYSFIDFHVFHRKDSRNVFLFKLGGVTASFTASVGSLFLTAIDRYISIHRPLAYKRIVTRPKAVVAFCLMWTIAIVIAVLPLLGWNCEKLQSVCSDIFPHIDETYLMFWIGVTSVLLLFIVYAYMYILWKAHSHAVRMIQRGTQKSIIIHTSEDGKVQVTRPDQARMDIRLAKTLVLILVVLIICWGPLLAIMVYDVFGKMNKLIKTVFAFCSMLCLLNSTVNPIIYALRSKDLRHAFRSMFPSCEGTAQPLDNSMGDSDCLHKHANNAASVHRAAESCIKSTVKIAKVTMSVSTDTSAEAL

[6] = target: Dopamine D1 (Homo sapiens, UniProt P21728); conditions: 10 μM compound, Hit Profile Panel
Sequence of Dopamine D1 (P21728 whole entry): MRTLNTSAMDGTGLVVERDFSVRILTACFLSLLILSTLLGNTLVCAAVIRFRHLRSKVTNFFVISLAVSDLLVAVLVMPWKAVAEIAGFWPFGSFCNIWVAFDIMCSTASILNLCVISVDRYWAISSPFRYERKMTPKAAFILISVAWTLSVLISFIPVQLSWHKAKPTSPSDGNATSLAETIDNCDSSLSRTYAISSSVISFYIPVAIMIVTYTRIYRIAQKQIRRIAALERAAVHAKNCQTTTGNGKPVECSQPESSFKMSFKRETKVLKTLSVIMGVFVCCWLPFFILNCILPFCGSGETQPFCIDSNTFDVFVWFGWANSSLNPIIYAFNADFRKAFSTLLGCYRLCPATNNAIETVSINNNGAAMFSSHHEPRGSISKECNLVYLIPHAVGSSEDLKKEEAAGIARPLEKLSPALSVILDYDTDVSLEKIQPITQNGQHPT

[7] = target: Dopamine D2s (Homo sapiens, UniProt P14416); conditions: 10 μM compound, Hit Profile Panel
[8] = system: GABAA, Flunitrazepam, Central; conditions: rat; 10 μM compound; Hit Profile Panel
[9] = system: GABAA, Muscimol, Central; conditions: rat; 10 μM compound; Hit Profile Panel
[10] = target: Histamine, H1 (Homo sapiens, UniProt P35367); conditions: 10 μM compound, Hit Profile Panel
Sequence of Histamine, H1 (P35367 whole entry): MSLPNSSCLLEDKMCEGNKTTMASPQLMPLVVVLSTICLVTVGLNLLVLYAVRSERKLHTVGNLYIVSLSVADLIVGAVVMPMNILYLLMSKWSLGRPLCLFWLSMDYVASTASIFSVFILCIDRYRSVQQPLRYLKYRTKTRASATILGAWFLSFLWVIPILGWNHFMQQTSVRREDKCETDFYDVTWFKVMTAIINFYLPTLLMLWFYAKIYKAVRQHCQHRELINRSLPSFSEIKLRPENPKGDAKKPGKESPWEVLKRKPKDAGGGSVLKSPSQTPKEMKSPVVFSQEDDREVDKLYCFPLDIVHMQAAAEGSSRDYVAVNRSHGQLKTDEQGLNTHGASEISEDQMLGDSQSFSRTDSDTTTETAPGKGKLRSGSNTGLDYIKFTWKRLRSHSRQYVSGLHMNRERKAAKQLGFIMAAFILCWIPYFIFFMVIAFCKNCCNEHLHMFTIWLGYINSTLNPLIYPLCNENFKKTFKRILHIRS

[11] = target: T4, Muscarinic M2 (Homo sapiens, UniProt P08172); conditions: 10 μM compound, Hit Profile Panel
T4 sequence (P08172 1-466): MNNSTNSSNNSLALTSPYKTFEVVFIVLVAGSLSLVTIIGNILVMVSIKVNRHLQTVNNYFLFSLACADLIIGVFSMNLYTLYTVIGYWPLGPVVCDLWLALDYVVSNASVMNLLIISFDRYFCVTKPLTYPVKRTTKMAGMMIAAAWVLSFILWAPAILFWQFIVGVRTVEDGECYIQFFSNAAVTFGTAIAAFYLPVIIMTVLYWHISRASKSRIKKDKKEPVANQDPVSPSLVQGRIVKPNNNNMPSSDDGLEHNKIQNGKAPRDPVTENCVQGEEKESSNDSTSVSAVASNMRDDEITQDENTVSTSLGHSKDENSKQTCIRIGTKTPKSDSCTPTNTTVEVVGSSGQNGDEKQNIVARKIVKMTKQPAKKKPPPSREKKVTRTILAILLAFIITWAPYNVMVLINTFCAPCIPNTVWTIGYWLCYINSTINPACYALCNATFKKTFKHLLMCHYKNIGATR

[12] = target: Muscarinic M3 (Homo sapiens, UniProt P20309); conditions: 10 μM compound, Hit Profile Panel
Sequence of Muscarinic M3 (P20309 whole entry): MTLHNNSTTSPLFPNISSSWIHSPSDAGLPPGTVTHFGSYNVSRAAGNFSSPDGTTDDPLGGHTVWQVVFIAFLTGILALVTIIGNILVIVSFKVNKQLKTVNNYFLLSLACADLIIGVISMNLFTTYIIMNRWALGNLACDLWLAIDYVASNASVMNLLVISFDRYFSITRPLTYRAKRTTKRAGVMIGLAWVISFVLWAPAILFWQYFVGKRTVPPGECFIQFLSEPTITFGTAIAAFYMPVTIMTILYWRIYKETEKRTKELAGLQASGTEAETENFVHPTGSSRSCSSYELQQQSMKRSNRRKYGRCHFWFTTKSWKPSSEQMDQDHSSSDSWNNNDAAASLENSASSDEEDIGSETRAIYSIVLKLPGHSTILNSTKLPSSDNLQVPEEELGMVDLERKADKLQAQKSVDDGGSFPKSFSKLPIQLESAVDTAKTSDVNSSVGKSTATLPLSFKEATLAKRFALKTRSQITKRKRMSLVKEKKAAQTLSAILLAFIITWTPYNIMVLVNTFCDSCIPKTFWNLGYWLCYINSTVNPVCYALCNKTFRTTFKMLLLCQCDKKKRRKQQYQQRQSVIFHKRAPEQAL

[13] = target: Nicotinic Acetylcholine a1, Bungarotoxin (Homo sapiens, UniProt P02708+P07510+Q07001); conditions: for inhibition at 10 µM: read-out: % Inhibition, Nicotinic Acetylcholine a1, Bungarotoxin
Sequence of Nicotinic Acetylcholine a1, Bungarotoxin (P02708 21-457): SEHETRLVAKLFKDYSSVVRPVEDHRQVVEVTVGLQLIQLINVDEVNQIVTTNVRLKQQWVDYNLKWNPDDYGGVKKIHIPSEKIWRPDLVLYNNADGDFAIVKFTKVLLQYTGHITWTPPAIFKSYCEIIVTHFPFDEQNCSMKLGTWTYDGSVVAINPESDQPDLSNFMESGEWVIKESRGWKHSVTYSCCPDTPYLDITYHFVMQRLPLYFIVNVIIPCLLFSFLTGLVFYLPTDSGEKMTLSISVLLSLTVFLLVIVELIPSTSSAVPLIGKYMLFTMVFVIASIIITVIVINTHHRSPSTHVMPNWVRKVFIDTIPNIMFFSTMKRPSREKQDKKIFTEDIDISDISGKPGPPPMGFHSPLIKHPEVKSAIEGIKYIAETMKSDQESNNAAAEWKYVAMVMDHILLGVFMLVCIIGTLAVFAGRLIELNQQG
Sequence of Nicotinic Acetylcholine a1, Bungarotoxin (P07510 23-517): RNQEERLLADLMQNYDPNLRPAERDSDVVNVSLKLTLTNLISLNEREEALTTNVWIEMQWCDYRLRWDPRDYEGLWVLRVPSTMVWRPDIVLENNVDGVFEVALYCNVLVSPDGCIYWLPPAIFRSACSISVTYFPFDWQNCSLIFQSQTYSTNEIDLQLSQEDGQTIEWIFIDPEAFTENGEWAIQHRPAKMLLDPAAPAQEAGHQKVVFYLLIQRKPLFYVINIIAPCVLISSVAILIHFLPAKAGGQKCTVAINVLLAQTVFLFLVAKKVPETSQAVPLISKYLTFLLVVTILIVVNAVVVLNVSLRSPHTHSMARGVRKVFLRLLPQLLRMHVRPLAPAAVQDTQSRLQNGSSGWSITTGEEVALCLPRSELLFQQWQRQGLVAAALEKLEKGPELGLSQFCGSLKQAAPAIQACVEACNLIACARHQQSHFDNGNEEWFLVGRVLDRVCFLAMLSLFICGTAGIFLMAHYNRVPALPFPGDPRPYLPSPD
Sequence of Nicotinic Acetylcholine a1, Bungarotoxin (Q07001 22-517): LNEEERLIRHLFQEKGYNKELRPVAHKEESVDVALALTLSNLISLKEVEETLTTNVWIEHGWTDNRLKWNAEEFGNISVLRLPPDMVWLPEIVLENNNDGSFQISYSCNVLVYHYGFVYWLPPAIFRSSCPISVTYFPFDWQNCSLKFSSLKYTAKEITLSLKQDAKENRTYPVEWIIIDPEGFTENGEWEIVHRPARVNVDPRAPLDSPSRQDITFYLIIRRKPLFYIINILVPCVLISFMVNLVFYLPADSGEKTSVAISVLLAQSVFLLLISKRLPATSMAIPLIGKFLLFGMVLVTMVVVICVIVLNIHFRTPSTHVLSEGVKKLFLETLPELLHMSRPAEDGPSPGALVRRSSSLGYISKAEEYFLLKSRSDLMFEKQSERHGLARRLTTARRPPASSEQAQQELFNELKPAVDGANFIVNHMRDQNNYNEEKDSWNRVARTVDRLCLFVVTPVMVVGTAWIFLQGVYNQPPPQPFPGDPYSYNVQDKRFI
Sequence of Nicotinic Acetylcholine a1, Bungarotoxin (P11230 24-501, further chain): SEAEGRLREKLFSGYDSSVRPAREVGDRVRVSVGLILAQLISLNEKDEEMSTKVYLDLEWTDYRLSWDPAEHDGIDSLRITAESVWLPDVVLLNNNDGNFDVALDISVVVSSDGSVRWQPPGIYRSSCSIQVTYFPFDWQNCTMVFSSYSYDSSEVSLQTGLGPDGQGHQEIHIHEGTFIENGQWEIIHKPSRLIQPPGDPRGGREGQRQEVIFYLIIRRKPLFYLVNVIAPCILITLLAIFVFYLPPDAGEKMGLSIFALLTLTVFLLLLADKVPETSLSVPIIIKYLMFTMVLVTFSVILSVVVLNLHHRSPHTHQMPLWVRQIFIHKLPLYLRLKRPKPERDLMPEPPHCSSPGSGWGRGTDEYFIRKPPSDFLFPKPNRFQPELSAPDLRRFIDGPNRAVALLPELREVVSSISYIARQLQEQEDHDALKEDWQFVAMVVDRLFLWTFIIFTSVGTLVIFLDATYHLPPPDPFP

[14] = target: Opiate μ(OP3, MOP) (Homo sapiens, UniProt P35372); conditions: 10 μM compound, Hit Profile Panel
Sequence of Opiate μ(OP3, MOP) (P35372 whole entry): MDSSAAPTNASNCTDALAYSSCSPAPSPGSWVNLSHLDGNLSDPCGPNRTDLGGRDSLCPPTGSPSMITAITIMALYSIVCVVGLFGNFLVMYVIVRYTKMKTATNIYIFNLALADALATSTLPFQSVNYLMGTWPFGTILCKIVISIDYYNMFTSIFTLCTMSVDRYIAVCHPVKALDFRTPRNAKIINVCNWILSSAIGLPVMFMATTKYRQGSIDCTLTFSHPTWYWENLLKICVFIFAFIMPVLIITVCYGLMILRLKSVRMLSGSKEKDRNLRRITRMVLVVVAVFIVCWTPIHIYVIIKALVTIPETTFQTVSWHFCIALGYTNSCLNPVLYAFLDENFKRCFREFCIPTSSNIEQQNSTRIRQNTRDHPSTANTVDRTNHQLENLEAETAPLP

[15] = target: Potassium Channel (KATP) (Cricetus cricetus, UniProt Q09427); conditions: hamster; 10 μM compound; Hit Profile Panel
[16] = target: Prostanoid EP4 (Homo sapiens, UniProt P35408); conditions: 10 μM compound, Hit Profile Panel
Sequence of Prostanoid EP4 (P35408 whole entry): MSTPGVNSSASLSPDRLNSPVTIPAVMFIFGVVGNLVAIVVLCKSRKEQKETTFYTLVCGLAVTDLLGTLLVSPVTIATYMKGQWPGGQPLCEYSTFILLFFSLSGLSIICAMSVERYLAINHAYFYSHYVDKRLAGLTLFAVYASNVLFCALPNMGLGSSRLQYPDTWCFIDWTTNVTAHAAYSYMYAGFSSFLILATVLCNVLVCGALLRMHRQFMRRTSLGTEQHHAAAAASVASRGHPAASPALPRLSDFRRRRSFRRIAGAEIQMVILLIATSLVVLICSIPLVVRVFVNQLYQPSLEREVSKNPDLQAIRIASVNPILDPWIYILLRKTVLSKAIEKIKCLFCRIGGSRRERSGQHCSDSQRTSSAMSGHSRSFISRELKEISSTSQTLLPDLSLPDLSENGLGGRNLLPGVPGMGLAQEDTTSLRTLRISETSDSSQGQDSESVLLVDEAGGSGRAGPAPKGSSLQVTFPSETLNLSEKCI

[17] = system: Rolipram; conditions: rat; 10 μM compound; Hit Profile Panel
[18] = target: Seritonin (5-Hydroxytryptamine) 5-HT2B (Homo sapiens, UniProt P41595); conditions: 10 μM compound, Hit Profile Panel

In the case of O=C(Nc1nnc(-c2ccc(F)cc2)o1)N1CCc2ccccc2C1 [MBX-4132], the “% Inhibition, Adenosine A1” value [1] is reported as 48%, the “% Inhibition, Adenosine A2A” value [2] is reported as 43% and the “% Inhibition, Adrenergic α1A” value [3] is reported as 24%. For the same compound, the “% Inhibition, Adrenergic α2A” value [4] was 54%, the “% Inhibition, Cannabinoid CB1” value [5] was 14% and the “% Inhibition, Dopamine D1” value [6] was −8%. The “% Inhibition, Dopamine D2s” value [7] was 25%, the “% Inhibition, GABAA, Flunitrazepam, Central” value [8] was 13% and the “% Inhibition, GABAA, Muscimol, Central” value [9] was 1%. The “% Inhibition, Histamine, H1” value [10] was 17%, the “% Inhibition, Muscarinic M2” value [11] was 13% and the “% Inhibition, Muscarinic M3” value [12] was 16%. For the same compound, the “% Inhibition, Nicotinic Acetylcholine a1, Bungarotoxin” value ([13]; human, 10 μM compound, Hit Profile Panel) was 0%, the “% Inhibition, Opiate μ(OP3, MOP)” value [14] was 74% and the “% Inhibition, Potassium Channel (KATP)” value [15] was 10%. For the same compound, the “% Inhibition, Prostanoid EP4” value [16] was 18%, the “% Inhibition, Rolipram” value [17] was 2% and the “% Inhibition, Seritonin (5-Hydroxytryptamine) 5-HT2B” value [18] was 53%.
With O=C(Nc1nnc(-c2ccc(F)cc2)o1)c1ccc(OC2CCCCC2)cc1 [compound 4292] the inhibition at 10 µM [1] was 8%, the inhibition at 10 µM [2] was 11% and the inhibition at 10 µM [3] was 9%. It also gave an inhibition at 10 µM [4] of 3%, an inhibition at 10 µM [5] of 11% and an inhibition at 10 µM [6] of 17%. The inhibition at 10 µM [7] was 1%, the “% Inhibition, GABAA, Flunitrazepam, Central” value [8] was −1% and the “% Inhibition, GABAA, Muscimol, Central” value [9] was −4%. The inhibition at 10 µM [10] was -8%, the inhibition at 10 µM [11] was 0% and the inhibition at 10 µM [12] was 0%. The inhibition at 10 µM [13] was -4%, the inhibition at 10 µM [14] was 4% and the inhibition at 10 µM [15] was 8%. The inhibition at 10 µM [16] was 28%, the “% Inhibition, Rolipram” value [17] was −8% and the inhibition at 10 µM [18] was -7%.
With O=C(Nc1nnc(-c2ccc(F)cc2)o1)N1CC=C(C(F)(F)F)CC1 [compound 4347] the inhibition at 10 µM [1] was -4%, the inhibition at 10 µM [2] was 3% and the inhibition at 10 µM [3] was -21%. For the same compound, the inhibition at 10 µM [4] was 9%, the inhibition at 10 µM [5] was 0% and the inhibition at 10 µM [6] was 5%. For the same compound, the inhibition at 10 µM [7] was -2%, the “% Inhibition, GABAA, Flunitrazepam, Central” value [8] was 22% and the “% Inhibition, GABAA, Muscimol, Central” value [9] was 4%. It also gave an inhibition at 10 µM [10] of 22%, an inhibition at 10 µM [11] of 2% and an inhibition at 10 µM [12] of 2%. It also gave an inhibition at 10 µM [13] of 2%, an inhibition at 10 µM [14] of -14% and an inhibition at 10 µM [15] of 2%. The inhibition at 10 µM [16] was -4%, the “% Inhibition, Rolipram” value [17] was −6% and the inhibition at 10 µM [18] was -1%.
